What was measured:
[1] = system: subjects (humans) with type 2 diabetes; experiment: Phase 2 clinical study of API-1, 12 weeks of treatment, on stable metformin; assay type: in vivo, human; details: for placebo-subtracted decrease from baseline in HbA1c (%): p<0.001
Experimental: A Phase 2 clinical study was designed as a randomized, double-blind, placebo- controlled, parallel-group multi-center study evaluating the efficacy and safety following 12 weeks of treatment with API-1 in subjects (humans) with type 2 diabetes who were being treated with a stable dose of metformin. Subjects were randomly assigned to one of three treatment groups, API-1 150 mg BID, API-1 150 mg QPM, or placebo with approximately n=52/group. A total of approximately 156 patients were to be randomized into this study and 174 were ultimately randomized. Subjects were enrolled and randomized according to a fixed randomization scheme blocked by study investigative site. Severity of diabetes was determined by HbA1c measures (7.5% to 10%) at screening, confirmed at Baseline, and HbA1c was used as a stratification variable in the randomization scheme: HbA1c less than 8% and 8% or more. Randomization was to be a balanced allocation (1:1:1) among the three treatment groups. Dropouts were not to be replaced. Statistical analyses for topline results included placebo-subtracted change from baseline (LSM-CFB) for HbA1c (primary endpoint) and body weight (secondary endpoint) as well as a post hoc concentration/effect analysis to evaluate the effect of exposure on efficacy.

[2] = system: subjects (humans) with T2DM; experiment: Phase 2 dose-ranging study of API-2, 12 weeks of treatment; assay type: in vivo, human; details: Target population (Baseline 8-11%)
Experimental: A Phase 2 study was designed as a randomized, double-blind, placebo controlled, dose-ranging, parallel group study evaluating the efficacy and safety following 12 weeks of treatment with API-2 in subjects (humans) with T2DM. The study was conducted in 2 parts: Part A and Part B. Part A and Part B were identical except for the dose levels administered. In Part A, subjects received one of two treatments administered orally for 12 weeks: API-2 400 mg QD (n=51) or matching placebo (n=26). In Part B, subjects received one of three treatments administered orally for 12 weeks: API-2 200 mg QD (n=28), API-2 800 mg QD (n=56), or matching placebo (n=26).

[3] = 150 mg once daily (QPM) arm, Week 12, completers, 2.2 mg/kg to 1.0 mg/kg
[4] = 150 mg twice daily (BID) arm, Week 12, completers, 2.2 mg/kg to 4.8 mg/kg

In the case of `CC[C@@H](c1ccccc1)N1Cc2cc3c(cc2C[C@H]1C(=O)N[C@@H](Cc1ccc(-c2ccnc(C)c2C)cc1)C(=O)O)OC[C@H](c1ccc(OCc2ccc(Cl)c(Cl)c2)cc1)O3.Cl.Cl` [API-1, (S)-2-{[(3S,8S)-3-[4-(3,4-dichloro-benzyloxy)-phenyl]-7-((S)-1-phenyl-propyl)-2,3,6,7,8,9-hexahydro-[1,4]dioxino[2,3-g]isoquinoline-8-carbonyl]-amino}-3-[4-(2,3-dimethyl-pyridin-4-yl)-phenyl]-propionic acid hydrochloride (1:2)], the “placebo-subtracted decrease from baseline in HbA1c (%)” value ([1]; 150 mg once daily (QPM) arm, 12 weeks) is reported as 0.9±0.2%, the “dose (mg/kg) response of change from baseline in FPG (FIG. 3)” value [1, 3] is reported as “increased as the dose was reduced” and the “dose (mg/kg) response of change from baseline in HbA1c (FIG. 1)” value [1, 3] is reported as “increased as the dose was reduced”. For the same compound, the “weight loss (average)” value ([1]; 150 mg once daily arm, 12 weeks, p=0.08) was 0.9 kg, the “placebo-subtracted decrease from baseline in HbA1c (%)” value ([1]; 150 mg twice daily (BID) arm, 12 weeks) was 0.7±0.2% and the “dose (mg/kg) response of change from baseline in FPG (FIG. 4)” value [1, 4] was “almost unchanged”. For the same compound, the “dose (mg/kg) response of change from baseline in HbA1c (FIG. 2)” value [1, 4] was “almost unchanged”, the “weight loss (average)” value ([1]; 150 mg twice daily arm, 12 weeks) was 0.6 kg and the “Mean Change from Baseline HbA1c (%)” value ([1]; group 1-1.35 mg/kg (<1.35), Week 4) was −0.57%. The “Mean Change from Baseline HbA1c (%)” value ([1]; group 1-1.35 mg/kg (<1.35), Week 8) was −1.26%, the “Mean Change from Baseline HbA1c (%)” value ([1]; group 1-1.35 mg/kg (<1.35), Week 12) was −1.71% and the “Mean Change from Baseline HbA1c (%)” value ([1]; group 1.35-1.64 mg/kg, Week 4) was −0.35%. For the same compound, the “Mean Change from Baseline HbA1c (%)” value ([1]; group 1.35-1.64 mg/kg, Week 8) was −0.85%, the “Mean Change from Baseline HbA1c (%)” value ([1]; group 1.35-1.64 mg/kg, Week 12) was −0.90% and the “Mean Change from Baseline HbA1c (%)” value ([1]; group 1.65-1.75 mg/kg, Week 4) was −0.21%. The “Mean Change from Baseline HbA1c (%)” value ([1]; group 1.65-1.75 mg/kg, Week 8) was −0.51%, the “Mean Change from Baseline HbA1c (%)” value ([1]; group 1.65-1.75 mg/kg, Week 12) was −0.75% and the “Mean Change from Baseline HbA1c (%)” value ([1]; group 1.76-2.2 mg/kg (>1.75), Week 4) was −0.31%. The “Mean Change from Baseline HbA1c (%)” value ([1]; group 1.76-2.2 mg/kg (>1.75), Week 8) was −0.43%, the “Mean Change from Baseline HbA1c (%)” value ([1]; group 1.76-2.2 mg/kg (>1.75), Week 12) was −0.55% and the “placebo-subtracted decrease from baseline in fasting plasma glucose” value ([1]; once daily arm, 12 weeks) was “about 16 mg/dL”. For the same compound, the “reduction from baseline in HbA1c” value ([1]; patients dosed with lower than 1.35 mg/kg, 12 weeks, p<0.01) was 1.7%, the “reduction from baseline in body weight” value ([1]; patients dosed with lower than 1.35 mg/kg, 12 weeks, p<0.05) was 3.7 kg and the “placebo-subtracted decrease from baseline in fasting plasma glucose” value ([1]; twice daily arm, 12 weeks) was about 17 mg/dL.

For `CC[C@@H](c1ccccc1)N1Cc2cc3c(cc2C[C@H]1C(=O)N[C@@H](Cc1ccc(-c2ccc(C#N)cc2)cc1)C(=O)O)N(C)C(=O)[C@@H](c1ccc(OCc2ccc(Cl)c(Cl)c2)cc1)O3` [API-2, (S)-3-(4′-cyano-biphenyl-4-yl)-2-{[(3R,7S)-3-[4-(3,4-dichlorobenzyloxy)-phenyl]-1-methyl-2-oxo-6-((S)-1-phenyl-propyl)-2,3,5,6,7,8-hexahydro-1H-4-oxa-1,6-diaza-anthracene-7-carbonyl]-amino}-propionic acid], the “Mean Change from Baseline in HbA1c (%)” value ([2]; group 1.4-2.7 mg/kg (<2.7), Week 4) was −0.37%, the “Mean Change from Baseline in HbA1c (%)” value ([2]; group 1.4-2.7 mg/kg (<2.7), Week 8) was −0.69% and the “Mean Change from Baseline in HbA1c (%)” value ([2]; group 1.4-2.7 mg/kg (<2.7), Week 12) was −0.79%. For the same compound, the “Mean Change from Baseline in HbA1c (%)” value ([2]; group 2.8-4.0 mg/kg, Week 4) was −0.47%, the “Mean Change from Baseline in HbA1c (%)” value ([2]; group 2.8-4.0 mg/kg, Week 8) was −0.86% and the “Mean Change from Baseline in HbA1c (%)” value ([2]; group 2.8-4.0 mg/kg, Week 12) was −1.09%. The “Mean Change from Baseline in HbA1c (%)” value ([2]; group 4.1-5.0 mg/kg, Week 4) was −0.36%, the “Mean Change from Baseline in HbA1c (%)” value ([2]; group 4.1-5.0 mg/kg, Week 8) was −0.78% and the “Mean Change from Baseline in HbA1c (%)” value ([2]; group 4.1-5.0 mg/kg, Week 12) was −0.85%. The “Mean Change from Baseline in HbA1c (%)” value ([2]; group 5.1-12.4 mg/kg (>5.0), Week 4) was −0.26%, the “Mean Change from Baseline in HbA1c (%)” value ([2]; group 5.1-12.4 mg/kg (>5.0), Week 8) was −0.34% and the “Mean Change from Baseline in HbA1c (%)” value ([2]; group 5.1-12.4 mg/kg (>5.0), Week 12) was −0.34%.

Source: US20250325536A1, “THERAPEUTIC USES OF GLP1R AGONISTS” (vTv Therapeutics LLC, priority 2018, published 2025)
